Experimental data: ChEMBL document CHEMBL1201862, “PubChem BioAssay data set” (2004)
Active and inactive are the calls of the source.

Legend:
Cytochrome P450 2C9 = Cytochrome P450 2C9 (Homo sapiens, UniProt P11712)
BJ [1] = assay: cells; type: functional, cell-based; details: Homo sapiens
[2] = C. albicans growth with fluconazole, confirmation, fluorescence, retest (AID 2467); type: functional, cell-based
BJ [3] = assay: cytotoxicity toward BJ-TERT fibroblasts, dose response, cell-based, RAS-independent, luminescence (AID 1933); type: functional; details: Homo sapiens
[4] = target: T1, DNA repair protein RAD52 homolog (Homo sapiens, UniProt P43351); type: functional, biochemical
T1 sequence (P43351 whole entry): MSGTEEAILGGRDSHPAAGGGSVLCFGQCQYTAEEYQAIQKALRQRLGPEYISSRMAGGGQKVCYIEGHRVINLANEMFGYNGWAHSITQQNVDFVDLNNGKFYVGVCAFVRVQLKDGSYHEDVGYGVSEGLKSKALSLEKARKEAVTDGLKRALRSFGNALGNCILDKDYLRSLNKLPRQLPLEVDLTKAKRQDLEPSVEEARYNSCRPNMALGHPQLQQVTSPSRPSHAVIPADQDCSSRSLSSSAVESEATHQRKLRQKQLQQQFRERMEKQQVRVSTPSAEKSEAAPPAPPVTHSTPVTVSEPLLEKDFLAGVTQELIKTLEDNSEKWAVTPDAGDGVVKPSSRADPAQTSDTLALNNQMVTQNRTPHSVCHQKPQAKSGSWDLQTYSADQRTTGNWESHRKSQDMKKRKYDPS

[5] = cytotoxicity toward DRD oncogenic fibroblasts, dose response, cell-based, non-viral oncogenic, luminescence (AID 1934); type: functional; details: Homo sapiens
BJ [6] = assay: cytotoxicity toward Ras-transformed BJeLR fibroblasts, dose response, cell-based, alamar blue fluorescence, cherrypicked samples (AID 2631); type: functional; details: Homo sapiens;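 also: confirmatory dose-response assay in RAS-dependent BJ fibroblasts engineered with TERT, LT and ST, with cytotoxicity read by fluorescence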
BJ [7] = assay: cytotoxicity toward BJ-TERT-LT-ST fibroblasts, dose response, cell-based, RAS-independent, luminescence (AID 1935); type: functional; details: Homo sapiens;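 also: BJ fibroblasts immortalized with TERT plus LT and ST oncogenes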
Aminopeptidase N = target: T2, Aminopeptidase N (Plasmodium falciparum FcB1/Columbia, UniProt O96935); assay: P. falciparum M1AAP inhibitors, biochemical, fluorogenic H-Leu-NHMec substrate, 1536-well (AID 1445); set-up: species or system Plasmodium falciparum 3D7, 3D7
T2 sequence (O96935 whole entry): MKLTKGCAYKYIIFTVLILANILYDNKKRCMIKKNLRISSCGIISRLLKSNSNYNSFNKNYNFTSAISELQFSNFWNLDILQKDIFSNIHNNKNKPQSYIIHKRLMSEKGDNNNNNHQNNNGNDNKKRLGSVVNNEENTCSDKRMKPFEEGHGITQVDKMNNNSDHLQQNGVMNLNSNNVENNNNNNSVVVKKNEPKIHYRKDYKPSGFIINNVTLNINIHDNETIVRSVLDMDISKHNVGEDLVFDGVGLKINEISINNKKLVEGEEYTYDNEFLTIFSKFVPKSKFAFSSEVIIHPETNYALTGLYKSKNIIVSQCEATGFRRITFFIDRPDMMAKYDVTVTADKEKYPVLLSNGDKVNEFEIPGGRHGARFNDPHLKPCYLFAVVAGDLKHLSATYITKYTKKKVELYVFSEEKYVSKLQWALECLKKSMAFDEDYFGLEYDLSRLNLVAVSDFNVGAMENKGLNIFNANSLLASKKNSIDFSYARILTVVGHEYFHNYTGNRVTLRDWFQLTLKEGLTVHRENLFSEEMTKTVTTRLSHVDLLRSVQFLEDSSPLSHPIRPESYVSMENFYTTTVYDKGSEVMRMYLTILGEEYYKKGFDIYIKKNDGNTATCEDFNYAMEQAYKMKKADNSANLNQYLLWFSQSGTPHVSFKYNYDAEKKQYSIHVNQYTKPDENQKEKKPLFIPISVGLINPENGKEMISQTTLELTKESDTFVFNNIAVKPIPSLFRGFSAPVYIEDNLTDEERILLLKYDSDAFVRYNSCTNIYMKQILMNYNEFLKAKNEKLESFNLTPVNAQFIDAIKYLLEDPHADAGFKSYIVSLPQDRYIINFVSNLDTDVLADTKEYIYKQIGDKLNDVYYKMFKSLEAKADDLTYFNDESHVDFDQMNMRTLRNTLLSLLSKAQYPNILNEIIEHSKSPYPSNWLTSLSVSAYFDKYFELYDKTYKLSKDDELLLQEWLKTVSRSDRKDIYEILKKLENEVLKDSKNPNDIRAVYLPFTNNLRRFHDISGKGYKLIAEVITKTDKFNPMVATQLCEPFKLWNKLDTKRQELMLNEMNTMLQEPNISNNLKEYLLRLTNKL

[8] = NIH-3T3 fibroblast cytotoxicity, dose response, cytotoxicity control, cell-based, fluorescence, Alamar Blue, secondary assay (AID 2327); type: functional;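 also: NIH-3T3 mouse fibroblasts cultured with fluconazole at 8 µg/mL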
Vero [9] = assay: cells; type: functional, cell-based; details: Chlorocebus sabaeus
[10] = growth suppression of beta-catenin-knockout colon cells, dose response, cell-based, HCT116, human colon tumor (AID 1045); type: functional;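 also: HCT116 colon tumor cells with beta catenin knocked out; cells exposed to compound for 60 hours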
Vero [11] = assay: cells; type: functional; details: Chlorocebus sabaeus
[12] = growth suppression of PTEN-null colon cells, dose response, cell-based, HCT116 PTEN knockout (AID 1047); type: functional;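 also: HCT116 colon tumor cells with PTEN knocked out; cells exposed to compound for 60 hours before readout; potency for loss of cell viability measured by luminescence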
[13] = target: Ras and Rab interactor 1/Tyrosine-protein kinase ABL1 (Homo sapiens, UniProt P00519+Q13671); type: functional;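 also: biochemical TR-FRET dose-response test measuring inhibition of binding between Rin1 and Abl proteins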
Sequence of Ras and Rab interactor 1/Tyrosine-protein kinase ABL1 (P00519 whole entry): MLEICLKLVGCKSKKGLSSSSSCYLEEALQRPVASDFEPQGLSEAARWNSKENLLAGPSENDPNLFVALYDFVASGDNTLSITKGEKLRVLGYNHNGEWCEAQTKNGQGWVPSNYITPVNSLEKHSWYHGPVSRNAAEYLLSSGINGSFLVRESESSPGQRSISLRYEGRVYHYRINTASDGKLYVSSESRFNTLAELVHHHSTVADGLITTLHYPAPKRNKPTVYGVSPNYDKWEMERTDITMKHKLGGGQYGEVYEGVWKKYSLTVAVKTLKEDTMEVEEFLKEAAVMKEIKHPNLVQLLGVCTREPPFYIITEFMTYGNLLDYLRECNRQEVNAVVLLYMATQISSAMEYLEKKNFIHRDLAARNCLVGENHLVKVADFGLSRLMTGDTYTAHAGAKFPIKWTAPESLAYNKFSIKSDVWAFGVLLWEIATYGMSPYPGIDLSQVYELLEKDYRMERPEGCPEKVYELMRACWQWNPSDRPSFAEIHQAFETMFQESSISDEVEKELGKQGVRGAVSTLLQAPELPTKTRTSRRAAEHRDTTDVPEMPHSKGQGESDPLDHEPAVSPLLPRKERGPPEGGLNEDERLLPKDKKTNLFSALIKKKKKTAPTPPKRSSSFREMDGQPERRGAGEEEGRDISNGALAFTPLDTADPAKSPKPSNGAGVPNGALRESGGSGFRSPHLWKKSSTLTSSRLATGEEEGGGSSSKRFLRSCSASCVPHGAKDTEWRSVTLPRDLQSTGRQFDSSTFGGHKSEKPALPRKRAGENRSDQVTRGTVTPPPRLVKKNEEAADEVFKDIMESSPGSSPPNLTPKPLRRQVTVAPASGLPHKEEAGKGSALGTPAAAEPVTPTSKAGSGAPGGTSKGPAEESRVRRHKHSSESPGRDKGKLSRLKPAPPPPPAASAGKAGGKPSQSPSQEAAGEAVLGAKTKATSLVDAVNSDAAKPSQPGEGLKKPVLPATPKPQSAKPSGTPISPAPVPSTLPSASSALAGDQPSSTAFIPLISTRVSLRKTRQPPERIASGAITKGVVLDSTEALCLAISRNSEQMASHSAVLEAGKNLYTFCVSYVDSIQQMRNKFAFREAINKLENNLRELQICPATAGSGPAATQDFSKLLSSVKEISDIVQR
Sequence of Ras and Rab interactor 1/Tyrosine-protein kinase ABL1 (Q13671 whole entry): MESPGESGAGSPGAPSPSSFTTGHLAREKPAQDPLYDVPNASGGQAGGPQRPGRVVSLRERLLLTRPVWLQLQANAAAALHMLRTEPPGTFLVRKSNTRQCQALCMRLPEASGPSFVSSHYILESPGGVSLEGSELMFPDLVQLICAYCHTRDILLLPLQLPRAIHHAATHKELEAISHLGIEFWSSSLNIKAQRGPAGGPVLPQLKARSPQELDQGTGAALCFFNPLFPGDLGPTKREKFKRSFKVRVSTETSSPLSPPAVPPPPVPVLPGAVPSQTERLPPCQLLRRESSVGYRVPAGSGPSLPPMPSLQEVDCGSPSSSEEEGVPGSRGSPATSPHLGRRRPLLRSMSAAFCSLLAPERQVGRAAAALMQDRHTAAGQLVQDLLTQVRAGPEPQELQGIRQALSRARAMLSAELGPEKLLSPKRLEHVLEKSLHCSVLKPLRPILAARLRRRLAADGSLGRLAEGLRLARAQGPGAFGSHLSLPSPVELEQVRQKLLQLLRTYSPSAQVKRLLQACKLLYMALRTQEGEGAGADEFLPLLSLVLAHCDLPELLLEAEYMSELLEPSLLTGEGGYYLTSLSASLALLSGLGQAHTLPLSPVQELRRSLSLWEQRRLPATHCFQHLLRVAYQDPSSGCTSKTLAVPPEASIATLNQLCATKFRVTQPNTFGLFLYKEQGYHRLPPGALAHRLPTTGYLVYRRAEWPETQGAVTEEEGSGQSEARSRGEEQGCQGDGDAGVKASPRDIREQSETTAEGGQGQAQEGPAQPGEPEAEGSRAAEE

[14] = CRF-BP/CRF-R2 complex antagonists, dose response, cell-based, uHTS hits, 384-well (AID 651639); type: functional, Homo sapiens; details: read-out: IC50_Mean
[15] = target: T3, Corticotropin-releasing factor receptor 2/Corticotropin-releasing factor-binding protein (Homo sapiens, UniProt P24387+Q13324); assay: Dose Response confirmation of uHTS hits for small molecule antagonists of the CRF-binding protein and CRF-R2 receptor complex.; type: functional; details: read-out: IC50_Mean
T3 sequence (Q13324 whole entry): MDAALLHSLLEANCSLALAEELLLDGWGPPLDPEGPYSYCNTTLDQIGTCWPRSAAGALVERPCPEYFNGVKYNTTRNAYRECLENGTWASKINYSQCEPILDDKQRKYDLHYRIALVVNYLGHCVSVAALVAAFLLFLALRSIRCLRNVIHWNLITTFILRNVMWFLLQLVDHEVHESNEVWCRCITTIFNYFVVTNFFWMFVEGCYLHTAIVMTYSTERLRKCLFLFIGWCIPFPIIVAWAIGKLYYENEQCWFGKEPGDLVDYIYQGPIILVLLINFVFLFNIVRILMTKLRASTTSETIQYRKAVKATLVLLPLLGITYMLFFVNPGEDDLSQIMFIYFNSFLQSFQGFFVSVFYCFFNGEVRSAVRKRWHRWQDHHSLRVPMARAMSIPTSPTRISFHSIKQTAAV
T3 sequence (P24387 whole entry): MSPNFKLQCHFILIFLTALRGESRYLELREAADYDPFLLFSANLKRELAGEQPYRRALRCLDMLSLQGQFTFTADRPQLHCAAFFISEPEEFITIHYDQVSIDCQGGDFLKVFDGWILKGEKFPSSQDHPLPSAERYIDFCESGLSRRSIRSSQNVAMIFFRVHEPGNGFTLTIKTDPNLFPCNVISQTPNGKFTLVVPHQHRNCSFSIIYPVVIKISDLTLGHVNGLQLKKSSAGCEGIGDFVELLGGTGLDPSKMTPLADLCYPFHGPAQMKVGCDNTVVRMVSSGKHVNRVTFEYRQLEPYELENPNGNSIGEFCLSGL

[16] = target: T3, Corticotropin-releasing factor receptor 2/Corticotropin-releasing factor-binding protein; assay: activators of CRF receptor 2 with binding protein – uHTS hits, confirmation (AID 602473); type: functional; details: read-out: EC50_Mean
Cytochrome P450 1A2 = target: T4, Cytochrome P450 1A2 (Homo sapiens, UniProt P05177);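 also: PubChem cytochrome P450 panel assay, CYP1A2 panel member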
T4 sequence (P05177 whole entry): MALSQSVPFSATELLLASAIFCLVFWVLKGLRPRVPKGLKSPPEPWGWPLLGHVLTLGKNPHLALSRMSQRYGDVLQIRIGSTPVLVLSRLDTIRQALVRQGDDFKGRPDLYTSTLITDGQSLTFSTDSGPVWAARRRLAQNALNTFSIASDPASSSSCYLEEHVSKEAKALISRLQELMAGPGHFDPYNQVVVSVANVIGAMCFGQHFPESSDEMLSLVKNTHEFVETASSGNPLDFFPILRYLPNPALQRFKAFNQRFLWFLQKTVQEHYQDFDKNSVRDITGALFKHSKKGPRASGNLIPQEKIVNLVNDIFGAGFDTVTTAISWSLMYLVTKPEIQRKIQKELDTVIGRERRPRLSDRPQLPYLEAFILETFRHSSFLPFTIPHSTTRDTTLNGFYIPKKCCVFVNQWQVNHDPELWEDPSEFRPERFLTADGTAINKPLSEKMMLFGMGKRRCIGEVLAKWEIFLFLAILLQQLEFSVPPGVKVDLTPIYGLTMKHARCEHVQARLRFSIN

Cytochrome P450 2C19 = Cytochrome P450 2C19 (Homo sapiens, UniProt P33261); assay: Cytochrome panel assay with activity outcomes. Panel member name: p450-cyp2c19 Compounds with AC50 equal or less than 10 uM are considered active; type: functional; details: read-out: AC50
Sequence of Cytochrome P450 2C19 (P33261 whole entry): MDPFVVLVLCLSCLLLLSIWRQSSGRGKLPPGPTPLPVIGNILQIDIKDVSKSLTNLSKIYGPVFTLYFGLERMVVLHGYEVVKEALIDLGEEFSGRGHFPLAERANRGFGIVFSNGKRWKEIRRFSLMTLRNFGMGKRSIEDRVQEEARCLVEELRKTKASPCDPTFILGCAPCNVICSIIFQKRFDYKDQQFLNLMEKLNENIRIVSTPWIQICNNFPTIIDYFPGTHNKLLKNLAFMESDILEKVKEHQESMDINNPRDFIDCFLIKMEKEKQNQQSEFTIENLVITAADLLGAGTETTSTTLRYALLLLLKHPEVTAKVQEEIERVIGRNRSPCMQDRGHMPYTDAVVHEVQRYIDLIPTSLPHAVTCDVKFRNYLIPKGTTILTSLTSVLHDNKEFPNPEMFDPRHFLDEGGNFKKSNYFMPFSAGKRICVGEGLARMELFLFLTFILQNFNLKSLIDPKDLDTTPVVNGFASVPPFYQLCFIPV

Cytochrome P450 3A4 = Cytochrome P450 3A4 (Homo sapiens, UniProt P08684);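 also: CYP3A4 tested as one member of a cytochrome P450 panel screen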
Sequence of Cytochrome P450 3A4 (P08684 whole entry): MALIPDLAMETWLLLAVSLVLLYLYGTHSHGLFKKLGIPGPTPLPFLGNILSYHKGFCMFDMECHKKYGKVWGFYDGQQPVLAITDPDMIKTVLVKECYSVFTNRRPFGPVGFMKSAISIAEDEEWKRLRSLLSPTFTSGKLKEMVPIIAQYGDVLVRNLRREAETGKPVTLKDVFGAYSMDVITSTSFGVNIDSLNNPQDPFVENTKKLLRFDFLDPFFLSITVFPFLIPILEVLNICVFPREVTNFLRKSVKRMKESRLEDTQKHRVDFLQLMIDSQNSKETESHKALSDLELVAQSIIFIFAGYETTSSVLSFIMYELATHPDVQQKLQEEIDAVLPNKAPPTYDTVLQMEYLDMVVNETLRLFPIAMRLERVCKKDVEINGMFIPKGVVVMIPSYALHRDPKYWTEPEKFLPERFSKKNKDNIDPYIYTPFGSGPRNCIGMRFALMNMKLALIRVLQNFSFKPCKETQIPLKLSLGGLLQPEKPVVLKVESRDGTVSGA

Sequence of Cytochrome P450 2C9 (P11712 whole entry): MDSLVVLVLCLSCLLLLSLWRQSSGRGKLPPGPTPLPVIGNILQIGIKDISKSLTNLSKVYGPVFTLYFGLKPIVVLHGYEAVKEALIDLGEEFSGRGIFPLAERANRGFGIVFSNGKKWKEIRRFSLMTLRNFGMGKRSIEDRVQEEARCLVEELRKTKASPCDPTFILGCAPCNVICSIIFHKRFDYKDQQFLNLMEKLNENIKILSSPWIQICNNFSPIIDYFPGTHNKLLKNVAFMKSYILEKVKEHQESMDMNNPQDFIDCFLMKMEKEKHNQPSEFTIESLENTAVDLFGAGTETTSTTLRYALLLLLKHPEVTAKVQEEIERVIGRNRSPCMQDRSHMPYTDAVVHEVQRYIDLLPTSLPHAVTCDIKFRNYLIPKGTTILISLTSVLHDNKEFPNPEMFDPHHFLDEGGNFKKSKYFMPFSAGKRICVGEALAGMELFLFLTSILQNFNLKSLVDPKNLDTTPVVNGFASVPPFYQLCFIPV

For O=C(Nc1cccc2ccccc12)c1cn(-c2ccccc2)nc1-c1cccs1, the AC50 (Cytochrome P450 2C9) was “inconclusive”.
With CCCCCCCCCC[n+]1cccc2c3ccccc3ccc21 the EC50 (BJ [1]) was 11.8 µM (active), the EC50 [2] was 0.723 µM (active) and the EC50 (BJ [3]) was 2.78 µM (active). The AC50 [4] was 6.58 µM (active), the EC50 [5] was 8.72 µM (active) and the EC50 (BJ [6]) was 5.93 µM (active). For the same compound, the EC50 (BJ [7]) was 10.2 µM (active), the IC50 (Aminopeptidase N) was 89.6 µM (active) and the EC50 [8] was > 150 µM (inactive).
With CCc1ccc(C(=O)/C=C/c2ccc([N+](=O)[O-])o2)cc1 the EC50 (BJ [1]) was > 150 µM (inconclusive), the EC50 (BJ [3]) was 5.72 µM (inconclusive) and the EC50 [5] was 5.5 µM (inconclusive). For the same compound, the EC50 (BJ [6]) was 0.57 µM (active), the EC50 (BJ [7]) was 4.02 µM (inconclusive) and the IC50 (Vero [9]) was > 25 µM (active). The EC50 [10] was 1.69 µM (active), the CC50 (Vero [11]) was 12.3 µM (active) and the EC50 [12] was 2.25 µM (active).
In the case of CC12CCC(=O)N1C(C(=O)Nc1nnc(SCc3ccccc3F)s1)CS2 (stereo not drawn), the IC50 [13] is reported as 4.08 µM (active).
With COc1ccc(NC(=O)CN(C)C(=O)Cc2ccc(S(=O)(=O)N3CCOCC3)s2)cc1 the IC50 [13] was 2.03 µM (active).
With CN(C)c1ccc(C=C2C(=O)OC3(CCCC3)OC2=O)cc1 the IC50 [14] was 2.36 µM (active), the IC50 [15] was 2.41 µM (active) and the EC50 [16] was 44.2 µM (active).
With Cc1cc(C)cc(-n2nnc(C(=O)NCc3ccccc3Cl)c2N)c1 the AC50 (Cytochrome P450 2C9) was “inconclusive”, the AC50 (Cytochrome P450 1A2) was 1.58 µM (inconclusive) and the AC50 (Cytochrome P450 2C19) was 3.16 µM (inconclusive). The AC50 (Cytochrome P450 3A4) was 15.8 µM (inconclusive).
